Measurements from the supplement of paper PMC10307832.

Experiments:
Assay in all cases: relative viability (nuclei count vs DMSO), 5 days (fraction); higher = more cells survive
[1] = test system: NCI-H1993
Outline: (§1)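 After 5 days of treatment, lung cancer cells in 1536-well plates were fixed and stained in a single step (final 0.05% Triton X-100, 1% formaldehyde, 1 ug/ml Hoechst) and their nuclei counted on 4× images. Treatment had been applied by pin tool the day after seeding as one drug alone or as a fixed anchor-drug dose with five library-drug doses (not always all listed) in √10 steps. Relative viability is the nuclei count of treated wells divided by that of vehicle wells, and values are medians of duplicate plates.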

[2] = test system: COR-L23
Outline: as §1

[3] = test system: UMC-11
Outline: as §1

[4] = test system: PC-14
Outline: as §1

[5] = test system: NCI-H1395
Outline: as §1

[6] = test system: NCI-H2228
Outline: as §1

[7] = test system: NCI-H1755
Outline: as §1

[8] = test system: NCI-H2170
Outline: as §1

[9] = test system: HCC-15
Outline: as §1

[10] = test system: NCI-H2009
Outline: as §1

[11] = test system: HARA
Outline: as §1

[12] = test system: NCI-H358
Outline: as §1

For `NC(=O)Nc1cc(-c2cccc(F)c2)sc1C(=O)N[C@H]1CCCNC1` [AZD7762] + COc1cccc2cc(-c3nc([C@H]4CC[C@H](C(=O)O)CC4)n4ncnc(N)c34)[nH]c12 [OSI-027] (partner 0.5 µM), the relative viability ([1]; first compound 0.1 µM) was 0.58, the relative viability ([1]; first compound 0.3162 µM) was 0.532 and the relative viability ([1]; first compound 1 µM) was 0.525. For the same compound, the relative viability ([2]; first compound 0.01 µM) was 0.866, the relative viability ([2]; first compound 0.03162 µM) was 0.866 and the relative viability ([2]; first compound 0.1 µM) was 0.758. It also gave a relative viability ([2]; first compound 0.3162 µM) of 0.711, a relative viability ([2]; first compound 1 µM) of 0.285 and a relative viability ([3]; first compound 0.01 µM) of 0.484. The relative viability ([3]; first compound 0.03162 µM) was 0.442, the relative viability ([3]; first compound 0.1 µM) was 0.43 and the relative viability ([3]; first compound 0.3162 µM) was 0.33. It also gave a relative viability ([3]; first compound 1 µM) of 0.241, a relative viability ([4]; first compound 0.01 µM) of 0.847 and a relative viability ([4]; first compound 0.03162 µM) of 0.816. It also gave a relative viability ([4]; first compound 0.1 µM) of 0.734, a relative viability ([4]; first compound 0.3162 µM) of 0.287 and a relative viability ([4]; first compound 1 µM) of 0.0799. For the same compound, the relative viability ([5]; first compound 0.01 µM) was 0.727, the relative viability ([5]; first compound 0.03162 µM) was 0.74 and the relative viability ([5]; first compound 0.1 µM) was 0.708. It also gave a relative viability ([5]; first compound 0.3162 µM) of 0.458, a relative viability ([5]; first compound 1 µM) of 0.363 and a relative viability ([6]; first compound 0.01 µM) of 0.513. For the same compound, the relative viability ([6]; first compound 0.03162 µM) was 0.847, the relative viability ([6]; first compound 0.1 µM) was 0.492 and the relative viability ([6]; first compound 0.3162 µM) was 0.302. The relative viability ([6]; first compound 1 µM) was 0.152, the relative viability ([7]; first compound 0.01 µM) was 0.826 and the relative viability ([7]; first compound 0.03162 µM) was 0.845. The relative viability ([7]; first compound 0.1 µM) was 0.722, the relative viability ([7]; first compound 0.3162 µM) was 0.712 and the relative viability ([7]; first compound 1 µM) was 0.44. It also gave a relative viability ([8]; first compound 0.01 µM) of 0.637, a relative viability ([8]; first compound 0.03162 µM) of 0.734 and a relative viability ([8]; first compound 0.1 µM) of 0.807. It also gave a relative viability ([8]; first compound 0.3162 µM) of 0.8, a relative viability ([8]; first compound 1 µM) of 0.707 and a relative viability ([9]; first compound 0.01 µM) of 0.664. For the same compound, the relative viability ([9]; first compound 0.03162 µM) was 0.702, the relative viability ([9]; first compound 0.1 µM) was 0.72 and the relative viability ([9]; first compound 0.3162 µM) was 0.766. The relative viability ([9]; first compound 1 µM) was 0.64, the relative viability ([10]; first compound 0.01 µM) was 0.664 and the relative viability ([10]; first compound 0.03162 µM) was 0.736. For the same compound, the relative viability ([10]; first compound 0.1 µM) was 0.73, the relative viability ([10]; first compound 0.3162 µM) was 0.601 and the relative viability ([10]; first compound 1 µM) was 0.459. For the same compound, the relative viability ([11]; first compound 0.01 µM) was 0.506, the relative viability ([11]; first compound 0.03162 µM) was 0.609 and the relative viability ([11]; first compound 0.1 µM) was 0.564. It also gave a relative viability ([11]; first compound 0.3162 µM) of 0.59, a relative viability ([11]; first compound 1 µM) of 0.16 and a relative viability ([12]; first compound 0.01 µM) of 0.956. For the same compound, the relative viability ([12]; first compound 0.03162 µM) was 0.838, the relative viability ([12]; first compound 0.1 µM) was 0.839 and the relative viability ([12]; first compound 0.3162 µM) was 0.75. The relative viability ([12]; first compound 1 µM) was 0.461.
